Values after ≈ are worked out from the molar mass of the structure shown. Where two headings read alike, the source gives them in different places. Bridge positions count the residues as written; N and C are the ends. Square brackets hold non-standard residues; d marks the D form. Peptide text beside a SMILES is read from it. * marks the point of attachment. Ileψ(thiazoline)Cys = CC[C@H](C)[C@H](N)C1=N[C@H](C(=O)*)CS1; dOrn = NCCC[C@@H](N)C(=O)O
System: Bacterial cells expressing antisense nucleic acid complementary to rplL and rplJ (50S ribosomal subunit proteins)
Assay: microbe, parasite or virus in culture
Type: cell-based, E. coli
Details: for IC50: Escherichia coli; for Fold Increase in Sensitivity: IC50 −IPTG versus +IPTG (400 μM); for Sensitivity Increased?: significant decrease in IC50 in the presence of inducer IPTG
Procedure: Two-fold dilution series of antibiotics with a known mechanism of action are generated in the culture media selected for further assay development that has been supplemented with the antibiotic used to maintain the construct. A panel of test antibiotics known to act on different pathways is tested side by side with three to four wells being used to evaluate the effect of a test antibiotic on cell growth at each concentration. Equal volumes of test antibiotic and cells are added to the wells of a 384 well microtiter plate and mixed. Cells are prepared as described above using the media selected for assay development supplemented with the antibiotic required to maintain the antisense construct and are diluted 1:100 in identical media immediately prior to addition to the microtiter plate wells. For a control, cells are also added to several wells that contain the solvent used to dissolve the antibiotics but no antibiotic. Cell growth is monitored continuously by incubation at 37° C. in a microtiter plate reader monitoring the OD600 of the wells over an 18-hour period. […] A plot of percent inhibition against log[antibiotic concentration] allows extrapolation of an IC50 value for each antibiotic.
The culture media selected for use in the assay is supplemented with inducer at concentrations shown to inhibit cell growth by 50% and 80% as described above and the antibiotic used to maintain the construct. Two fold dilution series of the panel of test antibiotics used above are generated in each of these media. Several antibiotics are tested side by side with three to four wells being used to evaluate the effects of an antibiotic on cell growth at each concentration, in each media. Equal volumes of test antibiotic and cells are added to the wells of a 384 well microtiter plate and mixed. Cells are prepared as described above using the media selected for use in the assay supplemented with the antibiotic required to maintain the antisense construct. […] Immediately prior to addition to the microtiter plate wells, the cultures are adjusted to an appropriate OD600 (typically 0.002) by dilution into warm (37° C.) sterile media supplemented with identical concentrations of the inducer and antibiotic used to maintain the antisense construct. For a control, cells are also added to several wells that contain solvent used to dissolve test antibiotics but which contain no antibiotic. Cell growth is monitored continuously by incubation at 37° C. in a microtiter plate reader monitoring the OD600 of the wells over an 18-hour period. […] A plot of percent inhibition against log[antibiotic concentration] allows extrapolation of an IC50 value for each antibiotic.
Antibiotics of various chemical classes and modes of action were purchased from Sigma Chemicals (St. Louis, Mo.). Stock solutions were prepared by dissolving each antibiotic in an appropriate aqueous solution based on information provided by the manufacturer. The final working solution of each antibiotic contained no more than 0.2% (w/v) of any organic solvent. To determine their potency against a bacterial strain engineered for expression of an antisense complementary to a proliferation-required gene encoding 50S ribosomal protein, each antibiotic was serially diluted two or three fold in growth medium supplemented with the appropriate antibiotic for maintenance of the anti-sense construct. At least ten dilutions were prepared for each antibiotic. 25 μL aliquots of each dilution were transferred to discrete wells of a 384-well microplate (the assay plate) using a multi-channel pipette. Quadruplicate wells were used for each dilution of an antibiotic under each treatment condition (plus and minus inducer). Each assay plate contained twenty wells for cell growth controls (growth media replacing antibiotic), ten wells for each treatment (plus and minus inducer, in this example IPTG).

Row | Structure (SMILES) | IC50 (read-out: IC50 (+IPTG)) [µg/mL] | IC50 (read-out: IC50 (−IPTG)) [µg/mL] | Fold Increase in Sensitivity | Sensitivity Increased?
1 | CC[C@H](C)[C@H](N)C1=N[C@H](C(=O)N[C@@H](CC(C)C)C(=O)N[C@H](CCC(=O)O)C(=O)N[C@H](C(=O)N[C@H]2CCCCNC(=O)[C@H](CC(N)=O)NC(=O)[C@@H](CC(=O)O)NC(=O)[C@H](Cc3cnc[nH]3)NC(=O)[C@@H](Cc3ccccc3)NC(=O)[C@H]([C@@H](C)CC)NC(=O)[C@@H](CCCN)NC2=O)[C@@H](C)CC)CS1 [Bacitracin] ({Ileψ(thiazoline)Cys}-L[dE]IK[dOrn]I[dF]H[dD]N; lactam 4-C) | 4.68 (≈ 3.29 µM) | 4.08 (≈ 2.87 µM) | 1 | No
2 | CO/N=C(\C(=O)N[C@@H]1C(=O)N2C(C(=O)O)=C(COC(C)=O)CS[C@H]12)c1csc(N)n1 [Cefotaxime] | 0.0242 (≈ 0.053 µM) | 0.0243 (≈ 0.0534 µM) | 1 | No
3 | CO[C@@]1(NC(=O)Cc2cccs2)C(=O)N2C(C(=O)O)=C(COC(N)=O)CS[C@@H]21 [Cefoxitin] | 2.48 (≈ 5.81 µM) | 2.78 (≈ 6.51 µM) | 1 | No
4 | O=C(N[C@H](CO)[C@H](O)c1ccc([N+](=O)[O-])cc1)C(Cl)Cl [Chloramphenicol] | 0.00152 (≈ 0.00469 µM) | 0.465 (≈ 1.44 µM) | 307 | Yes
5 | C[C@H]1c2cccc(O)c2C(=O)C2=C(O)[C@]3(O)C(=O)C(C(N)=O)=C(O)[C@@H](N(C)C)[C@@H]3[C@@H](O)[C@@H]21 [Doxycycline] | 0.0278 (≈ 0.0626 µM) | 0.413 (≈ 0.929 µM) | 15 | 
6 | CC(=O)O[C@H]1C[C@@]2(C)[C@@H](C[C@@H](O)[C@H]3[C@@]4(C)CC[C@@H](O)[C@@H](C)[C@@H]4CC[C@@]32C)/C1=C(\CCC=C(C)C)C(=O)O [Fusidic acid] | 0.641 (≈ 1.24 µM) | 60 (≈ 116 µM) | 94 | Yes
7 | CCC[C@@H]1C[C@@H](C(=O)N[C@@H]([C@H]2O[C@H](SC)[C@H](O)[C@@H](O)[C@H]2O)[C@@H](C)O)N(C)C1 [Lincomycin] | 0.324 (≈ 0.797 µM) | 47.1 (≈ 116 µM) | 145 | Yes
8 | CN(C)c1ccc(O)c2c1C[C@H]1C[C@H]3[C@H](N(C)C)C(O)=C(C(N)=O)C(=O)[C@@]3(O)C(O)=C1C2=O [Minocycline] | 0.0039 (≈ 0.00852 µM) | 0.668 (≈ 1.46 µM) | 172 | 

Reference: patent publication US20020022718A1, “Genes identified as required for proliferation of E. coli” (priority 1999, published 2002)
